Data on 7 compounds can be found in patent US20230310518A1, “Compositions and Methods for Treating Infections of the Gastrointestinal Tract” (Icahn School of Medicine at Mount Sinai, priority 2020, published 2023).

In one assay the test system is patients with rCDI. Kind of assay: Validation of bacterial strain engraftment through culturing from donor and recipient post-FMT. It counts as in vivo, human. Conditions: 8 weeks post-FMT; number of strains of the species. The text has this: The isolation and sequencing of the transmitted strains from both the donor and the recipient represents a gold standard validation and verification of the commensal Koch’s postulates. […] The inventors cultured strains from 6 recipients both pre- and post-FMT (FIG. 2A) and compared the strain composition to that from the donor, to experimentally validate bacterial strain transmission.

Assay [1] concerns strains included in MTC01. Kind of assay: Antibiotic susceptibility, MIC by CLSI standards (Micromyx) and in-house etest. It counts as cell-based. Conditions: highest value of CLSI and etest methods. The text has this:
To be suitable for human trials, the strains in the bacterial consortium must be cultivatable in growth media that is free of animal products. The inventors discovered that all 16 bacterial strains can be cultured in a specific animal free media LYH_VIB (Table 7). All strains reach sufficient optical density (OD600) and potency (CFU/mL) cultured in LYH_VIB to be manufactured for human trials (Table 5). For safety considerations, the inventors focused on bacterial consortium strains that would be susceptible to multiple antibiotics. The inventors tested susceptibility to a range of antibiotics for all strains included in MTC01 and the minimal inhibitory concentration (MIC) was determined according to guidelines of the Clinical and Laboratory Standards Institute (CLSI). All strains were susceptible to multiple antibiotics (Table 6). […] The inventors confirmed that all 16 strains were strict anaerobes with no bacterial growth documented for any of the strains under aerobic conditions as confirmed by total aerobic microbial count (TAMC).
Each strain is susceptible to multiple antibiotics, and all strains are susceptible to three antibiotics (SAM, AMC, MEM). Minimum inhibitory concentrations (MIC) were determined by a CRO [Micromyx, LLC] according to CLSI standards and in-house by etest, keeping the highest value between the two methods: vancomycin (VAN), metronidazole (MTZ), tigecycline (TGC), ampicillin/sulbactam (SAM), amoxicillin/clavulanic acid (AMC), meropenem (MEM), piperacillin/tazobactam (TZP), clindamycin (CLI), ceftriaxone (CRO), moxifloxacin (MOX). […] Finally, multiple test fermentations were used to determine that the volumes for each manufacturing run are well within the 8L capacity of our current manufacturing set-up.

For Parabacteroides distasonis, the “Cultured in both donor and recipient post-FMT at 8 weeks” value (“Cultured” below) in the assay on patients with rCDI came out at 3 strains.
As to ampicillin/sulbactam [SAM], the “susceptibility of all MTC01 strains to the antibiotic” value (shortened to “susceptibility of all MTC01 strains”) in assay [1] is given as “susceptible”.
On to Bifidobacterium longum, for which, in the assay with patients with rCDI, the “Cultured” value worked out at 4 strains.
Take Bacteroides cellulosilyticus: the “Cultured” value in the assay on patients with rCDI turned out to be 1 strains.
Turning to amoxicillin/clavulanic acid [AMC], in assay [1], the “susceptibility of all MTC01 strains” value is listed as “susceptible”.
Consider Bacteroides fragilis, for which, in the assay with patients with rCDI, the “Cultured” value was 1 strains.
For `C[C@@H](O)[C@H]1C(=O)N2C(C(=O)O)=C(S[C@@H]3CN[C@H](C(=O)N(C)C)C3)[C@H](C)[C@H]12` [MEM, meropenem], the “susceptibility of all MTC01 strains” value in assay [1] was “susceptible”.
